Series [1] deals with Mus musculus. In words: Neuroprotective activity in Kunming mouse model of amyloid beta (1 to 42) oligomer-induced memory impairment assessed as reduction in neuronal degeneration by measuring reduction in degenerative changes in nucleus of CA1 and CA3 region at 1.3 mg/kg, po starting from day 1 of amyloid beta (1 to 42) oligomer treatment and measured on day 7 by TUNEL assay. Type of series: functional, organism-based.

The subject of series [2] is Mus musculus. In words: Cognitive enhancing effect in Kunming mouse model of amyloid beta (1 to 42) oligomer-induced memory impairment assessed as induction of fewer entries into dark compartment at 1.3 mg/kg, po starting from day 1 of amyloid beta (1 to 42) oligomer treatment and measured on day 7 by passive avoidance test. It counts as functional, organism-based.
For series [3], the system named is Mus musculus. In words: Neuroprotective activity in Kunming mouse model of amyloid beta (1 to 42) oligomer-induced memory impairment assessed as reduction in neural degeneration in CA1 region at 1.3 mg/kg, po starting from day 1 of amyloid beta (1 to 42) oligomer treatment and measured on day 7 by Nissl's staining-based assay. Type of series: functional, organism-based.

For series [4], the system named is Mus musculus. The series can be described thus: Memory enhancing effect in Kunming mouse model of amyloid beta (1 to 42) oligomer-induced memory impairment assessed as increase in preferential index in retention session of 1 hr at 1.3 mg/kg/day, po starting from day 1 of amyloid beta (1 to 42) oligomer treatment and measured on day 7 by novel object recognition test. Type of series: functional, organism-based.

Series [5] relates to Mus musculus. In words: Neuroprotective activity in Kunming mouse model of amyloid beta (1 to 42) oligomer-induced memory impairment assessed as reduction in neuronal degeneration by measuring clear and intact neurons in CA1 and CA3 region at 1.3 mg/kg, po starting from day 1 of amyloid beta (1 to 42) oligomer treatment and measured on day 7 by TUNEL assay. It counts as functional, organism-based.

In series [6] the test system is Mus musculus. In words: Cognitive enhancing effect in Kunming mouse model of amyloid beta (1 to 42) oligomer-induced memory impairment increase in time spent in target quadrant by measuring increase in number of platform crossings at 1.3 mg/kg/day, po starting from day 1 of amyloid beta (1 to 42) oligomer treatment and measured on day 12 by Morris water maze test. It counts as functional, organism-based.

Series [7] relates to Mus musculus. The series can be described thus: Toxicity in Kunming mouse model of amyloid beta (1 to 42) oligomer-induced memory impairment assessed as effect on number of arm entries at 1.3 mg/kg/day, po starting from day 1 of amyloid beta (1 to 42) oligomer treatment and measured on day 7 by Y-maze test. Type of series: organism-based. Conditions: in vivo.
The subject of series [8] is Mus musculus. In words: Neuroprotective activity amyloid beta (1 to 42) oligomer-induced memory impaired Kunming mouse assessed as reduction in apoptotic cells in CA1 and CA3 hipocampal neurons at 1.3 mg/kg, po starting from day 1 of amyloid beta (1 to 42) oligomer treatment and measured on day 7 by TUNEL assay. Type of series: functional, organism-based.
Series [9] concerns Mus musculus. In words: Cognitive enhancing effect in Kunming mouse model of amyloid beta (1 to 42) oligomer-induced memory impairment assessed as longer escape latency at 1.3 mg/kg, po starting from day 1 of amyloid beta (1 to 42) oligomer treatment and measured on day 7 by passive avoidance test. It counts as functional, organism-based.
Series [10] deals with Mus musculus. The series can be described thus: Cognitive enhancing effect in Kunming mouse model of amyloid beta (1 to 42) oligomer-induced memory impairment assessed as […] in spontaneous alternation behaviors at 1.3 mg/kg/day, po starting from day 1 of amyloid beta (1 to 42) oligomer treatment and measured on day 7 by Y-maze test. Type of series: functional, organism-based.

Series [11] relates to Mus musculus. The series can be described thus: Cognitive enhancing effect in Kunming mouse model of amyloid beta (1 to 42) oligomer-induced memory impairment assessed as induction of fewer entries into dark compartment at 35 mg/kg, po starting from day 1 of amyloid beta (1 to 42) oligomer treatment and measured on day 7 by passive avoidance test. It counts as functional, organism-based.

Series [12] relates to Mus musculus. The series can be described thus: Cognitive enhancing effect in Kunming mouse model of amyloid beta (1 to 42) oligomer-induced memory impairment increase in time spent in target quadrant by measuring increase in number of platform crossings at 17.5 to 35 mg/kg/day, po starting from day 1 of amyloid beta (1 to 42) oligomer treatment and measured on day 12 by Morris water maze test. It counts as functional, organism-based.

The subject of series [13] is Mus musculus. In words: Toxicity in Kunming mouse model of amyloid beta (1 to 42) oligomer-induced memory impairment assessed as effect on number of arm entries at 17.5 to 35 mg/kg/day, po starting from day 1 of amyloid beta (1 to 42) oligomer treatment and measured on day 7 by Y-maze test. It counts as organism-based. The note with it: in vivo.
For series [14], the system named is Mus musculus. The series can be described thus: Cognitive enhancing effect in Kunming mouse model of amyloid beta (1 to 42) oligomer-induced memory impairment assessed as […] in spontaneous alternation behaviors at 17.5 to 35 mg/kg/day, po starting from day 1 of amyloid beta (1 to 42) oligomer treatment and measured on day 7 by Y-maze test. Type of series: functional, organism-based.

The target in series [15] is T1, Amyloid-beta precursor protein (Homo sapiens, UniProt P05067). In words: Potency index, ratio of IC50 for curcumin to IC50 for test compound for inhibition of amyloid beta (1 to 42) (unknown origin) self-aggregation after 24 hrs by thioflavin-T fluorescence assay.
Series [16] concerns SH-SY5Y. The series can be described thus: Neuroprotective activity against H2O2-induced oxidative stress in human SH-SY5Y cells assessed as cell viability at 25 uM pre-incubated for 1 hr followed by H2O2 addition and measured after 4 hrs by MTT assay relative to control. Type of series: functional. Conditions: read-out: Activity.
For series [17], the system named is SH-SY5Y. The series can be described thus: Cytotoxicity against human SH-SY5Y cells at 50 uM after 24 hrs by MTT assay. Type of series: cell-based.
Series [18] concerns the target T1, Amyloid-beta precursor protein. The series can be described thus: Inhibition of amyloid beta (1 to 42) (unknown origin) self-aggregation after 24 hrs by thioflavin-T fluorescence assay.
For series [19], the system named is SH-SY5Y. The series can be described thus: Neuroprotective activity against H2O2-induced oxidative stress in human SH-SY5Y cells assessed as cell viability at 50 uM pre-incubated for 1 hr followed by H2O2 addition and measured after 4 hrs by MTT assay relative to control. Type of series: functional. The note with it: read-out: Activity.
The target in series [20] is T1, Amyloid-beta precursor protein. The series can be described thus: Inhibition of amyloid beta (1 to 42) (unknown origin) self-aggregation at 20 uM after 24 hrs by thioflavin-T fluorescence assay relative to control.
Series [21] has as its system Mus musculus. In words: Neuroprotective activity in Kunming mouse model of amyloid beta (1 to 42) oligomer-induced memory impairment assessed as reduction in neural degeneration in CA1 region at 17.5 to 35 mg/kg, po starting from day 1 of amyloid beta (1 to 42) oligomer treatment and measured on day 7 by Nissl's staining-based assay. Type of series: functional, organism-based.

Series [22] concerns Mus musculus. The series can be described thus: Neuroprotective activity in Kunming mouse model of amyloid beta (1 to 42) oligomer-induced memory impairment assessed as reduction in neuronal degeneration by measuring reduction in degenerative changes in nucleus of CA1 and CA3 region at 17.5 to 35 mg/kg, po starting from day 1 of amyloid beta (1 to 42) oligomer treatment and measured on day 7 by TUNEL assay. Type of series: functional, organism-based.

The subject of series [23] is Mus musculus. In words: Neuroprotective activity in Kunming mouse model of amyloid beta (1 to 42) oligomer-induced memory impairment assessed as reduction in neuronal degeneration by measuring clear and intact neurons in CA1 and CA3 region at 17.5 to 35 mg/kg, po starting from day 1 of amyloid beta (1 to 42) oligomer treatment and measured on day 7 by TUNEL assay. It counts as functional, organism-based.

The subject of series [24] is Mus musculus. The series can be described thus: Memory enhancing effect in Kunming mouse model of amyloid beta (1 to 42) oligomer-induced memory impairment assessed as increase in preferential index in retention session of 1 hr at 17.5 mg/kg/day, po starting from day 1 of amyloid beta (1 to 42) oligomer treatment and measured on day 7 by novel object recognition test. Type of series: functional, organism-based.

Series [25] has as its system SH-SY5Y. The series can be described thus: Neuroprotective activity against H2O2-induced oxidative stress in human SH-SY5Y cells assessed as cell viability at 12.5 uM pre-incubated for 1 hr followed by H2O2 addition and measured after 4 hrs by MTT assay relative to control. Conditions: read-out: Activity. Type of series: functional.
The subject of series [26] is Mus musculus. In words: Cognitive enhancing effect in Kunming mouse model of amyloid beta (1 to 42) oligomer-induced memory impairment assessed as longer escape latency at 35 mg/kg, po starting from day 1 of amyloid beta (1 to 42) oligomer treatment and measured on day 7 by passive avoidance test. Type of series: functional, organism-based.
The test system of series [27] is Mus musculus. In words: Neuroprotective activity amyloid beta (1 to 42) oligomer-induced memory impaired Kunming mouse assessed as reduction in apoptotic cells in CA1 and CA3 hipocampal neurons at 35 mg/kg, po starting from day 1 of amyloid beta (1 to 42) oligomer treatment and measured on day 7 by TUNEL assay. Type of series: functional, organism-based.
Series [28] has as its system Mus musculus. In words: Cognitive enhancing effect in Kunming mouse model of amyloid beta (1 to 42) oligomer-induced memory impairment assessed as longer escape latency at 17.5 to 35 mg/kg, po starting from day 1 of amyloid beta (1 to 42) oligomer treatment and measured on day 7 by passive avoidance test. It counts as functional, organism-based.
The test system of series [29] is Mus musculus. The series can be described thus: Cognitive enhancing effect in Kunming mouse model of amyloid beta (1 to 42) oligomer-induced memory impairment assessed as induction of fewer entries into dark compartment at 17.5 to 35 mg/kg, po starting from day 1 of amyloid beta (1 to 42) oligomer treatment and measured on day 7 by passive avoidance test. Type of series: functional, organism-based.

The test system of series [30] is Mus musculus. The series can be described thus: Memory enhancing effect in Kunming mouse model of amyloid beta (1 to 42) oligomer-induced memory impairment assessed as increase in preferential index in retention session of 1 hr at 17.5 to 35 mg/kg/day, po starting from day 1 of amyloid beta (1 to 42) oligomer treatment and measured on day 7 by novel object recognition test. Type of series: functional, organism-based.

The results in this text go back to ChEMBL document CHEMBL4152201, “Novel sarsasapogenin-triazolyl hybrids as potential anti-Alzheimer's agents: Design, synthesis and biological evaluation” (Eur J Med Chem, 2018).

Active and inactive are the calls of the source. The calls are words filed in the database; no cut-off is given here.

T1 sequence (P05067 whole entry): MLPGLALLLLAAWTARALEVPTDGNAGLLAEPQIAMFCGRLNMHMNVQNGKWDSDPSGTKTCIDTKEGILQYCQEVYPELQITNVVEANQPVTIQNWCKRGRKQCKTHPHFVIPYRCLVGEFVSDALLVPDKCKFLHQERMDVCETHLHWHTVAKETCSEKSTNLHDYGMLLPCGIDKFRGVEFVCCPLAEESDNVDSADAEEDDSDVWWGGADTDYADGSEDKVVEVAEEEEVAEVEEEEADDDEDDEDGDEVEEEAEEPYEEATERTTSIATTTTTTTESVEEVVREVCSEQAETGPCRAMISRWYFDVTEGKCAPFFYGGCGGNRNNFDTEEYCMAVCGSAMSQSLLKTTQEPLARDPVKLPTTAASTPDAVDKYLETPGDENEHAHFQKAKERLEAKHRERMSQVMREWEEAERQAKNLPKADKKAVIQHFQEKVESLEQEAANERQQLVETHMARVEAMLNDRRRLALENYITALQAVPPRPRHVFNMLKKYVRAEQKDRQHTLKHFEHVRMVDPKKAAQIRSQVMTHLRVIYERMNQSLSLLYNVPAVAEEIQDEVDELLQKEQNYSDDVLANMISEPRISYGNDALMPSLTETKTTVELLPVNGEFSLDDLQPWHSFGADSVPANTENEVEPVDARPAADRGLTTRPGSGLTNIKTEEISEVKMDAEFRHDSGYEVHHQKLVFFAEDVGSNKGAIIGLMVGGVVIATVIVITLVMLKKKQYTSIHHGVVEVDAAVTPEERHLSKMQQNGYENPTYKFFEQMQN

For `COc1cc2c(cc1OC)C(=O)C(CC1CCN(Cc3ccccc3)CC1)C2.Cl` (centres undefined) [DONEPEZIL HYDROCHLORIDE], the outcome in the series with Mus musculus [1], in the series with Mus musculus [2], with Mus musculus [3], with Mus musculus [4], in the series on Mus musculus [5] and in the series on Mus musculus [6] was Active. Moreover, the outcome in the series on Mus musculus [8], in the series on Mus musculus [9] and in the series with Mus musculus [10] was Active. Besides, in the series on Mus musculus [7], the Activity entry is listed as “Non-Toxic”.

`COc1ccc(Cn2cc(CNC(=O)[C@@H](C)CC[C@H]3O[C@H]4C[C@H]5[C@@H]6CC[C@@H]7C[C@@H](OCc8ccccc8)CC[C@]7(C)[C@H]6CC[C@]5(C)[C@H]4[C@@H]3C)nn2)cc1`: the result in the series with Mus musculus [11], in the series on Mus musculus [12], with Mus musculus [14], with Mus musculus [21], in the series on Mus musculus [22] and in the series on Mus musculus [23] was Active. In addition, the result with Mus musculus [24], in the series with Mus musculus [26] and in the series on Mus musculus [27] was Active. Also, the Activity entry with Mus musculus [13] and with SH-SY5Y [17] was “Non-Toxic” each time. Also, in series [15], the Ratio IC50 was found to be 2.6. In addition, in the series with SH-SY5Y [16], the viability at 25 µM was determined as 80.9%. The same molecule returned an IC50 in series [18] of 5.84 µM. Further, in the series on SH-SY5Y [19], the viability at 50 µM is 63.1%. For the same molecule, in [20], the inhibition is 84.7%. For the same molecule, in the series with SH-SY5Y [25], the viability at 12.5 µM worked out at 71.8%.

Take `C[C@H]1[C@H]2[C@H](C[C@H]3[C@@H]4CC[C@@H]5C[C@@H](OCc6ccccc6)CC[C@]5(C)[C@H]4CC[C@]23C)O[C@@H]1CC[C@H](C)C(=O)NCc1cn(Cc2cscn2)nn1`: the result in the series on Mus musculus [12], in the series with Mus musculus [14], with Mus musculus [21], in the series on Mus musculus [28], in the series on Mus musculus [29] and in the series on Mus musculus [22] was Active. The result in the series on Mus musculus [23], in the series on Mus musculus [30] and in the series on Mus musculus [27] was Active. In addition, the Activity entry in the series with Mus musculus [13] and in the series with SH-SY5Y [17] was “Non-Toxic” each time. The Ratio IC50 in series [15] amounted to 1.8. Further, the viability at 25 µM in the series on SH-SY5Y [16] stood at 73.3%. Moreover, the IC50 in series [18] stood at 8.28 µM. The viability at 50 µM in the series with SH-SY5Y [19] came out at 84.9%. For the same molecule, the inhibition in series [20] came out at 75.1%. In addition, the viability at 12.5 µM in the series with SH-SY5Y [25] was found to be 71.6%.
